Measurements published in patent US20110275813A1, “Bicylic 1,3-diones and Their Use as Insecticides, Acaricides and/or Fungicides” (Bayer Cropscience AG, priority 2009, published 2011).

What was measured:
Assay type in all cases: in vivo
[1] = test system: Sphaerotheca fuliginea; assay: Sphaerotheca test (cucumber)/preventive; conditions: preventive, 7 days after inoculation
Procedure: Sphaerotheca Test (Cucumber)/Preventive
Solvent: 49 parts by weight of N,N-Dimethylformamide
Emulsifier: 1 part by weight of Alkylarylpolyglycolether
To produce a suitable preparation of active compound, 1 part by weight of active compound is mixed with the stated amounts of solvent and emulsifier, and the concentrate is diluted with water to the desired concentration.
To test for preventive activity, young plants are sprayed with the preparation of active compound at the stated rate of application. One day after this treatment, the plants are inoculated with an aqueous spore suspension of Sphaerotheca fuliginea. Then the plants are placed in a greenhouse at approximately 23° C. and a relative atmospheric humidity of approximately 70%.
The test is evaluated 7 days after the inoculation. 0% means an efficacy which corresponds to that of the control, while an efficacy of 100% means that no disease is observed.

[2] = test system: Spodoptera frugiperda; assay: Spodoptera frugiperda test (SPODFR spray application); conditions: 168 h, sprayed maize leaf sections, after 7 days
Excerpt: Spodoptera frugiperda—Test (SPODFR Spray Application)
(§1) Solvent: 78.0 parts by weight acetone • 1.5 parts by weight dimethylformamide
(§2) Emulsifier: 0.5 parts by weight alkylarylpolyglycolether
To produce a suitable preparation of the active compound, 1 part by weight of active compound is mixed with the stated amount of solvent and emulsifier, and the concentrate is dilutes with emulsifier-containing water to the desired concentration. Maize (Zea mais) leaf sections are sprayed with a preparation of the active ingredient of the desired concentration. Once dry, the leaf sections are infested with fall armyworm larvae (Spodoptera frugiperda).
After 7 days mortality in % is determined. 100% means that all caterpillars have been killed and 0% means that none of the caterpillars have been killed.

[3] = test system: Myzus persicae; assay: Myzus persicae test (MYZUPE spray application); conditions: 144 h, sprayed Chinese cabbage leaf-disks, after 6 days
Procedure: Myzus persicae—Test; (MYZUPE Spray Application)
as §1, §2
(§3) To produce a suitable preparation of active compound, 1 part by weight of active compound is mixed with the stated amount of solvent and emulsifier, and the concentrate is diluted with emulsifier-containing water to the desired concentration. Chinese cabbage (Brassica pekinesis) leaf-disks infected with all instars of the green peach aphid (Myzus persicae), are sprayed with a preparation of the active ingredient at the desired concentration.
After 6 days mortality in % is determined. 100% means that all aphids have been killed; 0% means that none of the aphids have been killed.

[4] = test system: Tetranychus urticae; assay: Tetranychus urticae test; OP-resistant (TETRUR spray application); conditions: 120 h, spray on infested French beans, after 5 days
Procedure: Tetranychus urticae—Test; OP-Resistant (TETRUR Spray Application)
as §1, §2
as §3, with “French beans (Phaseolus vulgaris) which are heavily infested” for “Chinese cabbage (Brassica pekinesis) leaf-disks infected”, “stages” for “instars”, “two spotted spidermite (Tetranychus urticae),” for “green peach aphid (Myzus persicae),”
After 5 days mortality in % is determined. 100% means that all spider mites have been killed and 0% means that none of the spider mites have been killed.

[5] = test system: Phaedon cochleariae; assay: Phaedon cochleariae test (PHAECO spray application); conditions: 168 h, sprayed Chinese cabbage leaf-disks, after 7 days
Procedure: Phaedon cochleariae—Test; (PHAECO Spray Application)
Solvent: 78.0 parts by weight of acetone • • 1.5 parts by weight of dimethylformamide
Emulsifier: 0.5 parts by weight of alkylaryl polyglycolether
To produce a suitable preparation of active compound, 1 part by weight of active compound is mixed with the stated amount of solvent and emulsifier, and the concentrate is diluted with emulsifier-containing water to the desired concentration. Chinese cabbage (Brassica pekinesis) leaf-disks are sprayed with a preparation of the active ingredient of the desired concentration. Once dry, the leaf disks are infested with mustard beetle larvae (Phaedon cochleariae).
After 7 days mortality in % is determined. 100% means that all beetle larvae have been killed and 0% means that none of the beetle larvae have been killed.

## Cc1ccc(-c2ccc(Cl)cc2)cc1C1=C(O)[C@H]2CC[C@H](C2)C1=O [Compound T1]
[1]; 500 ppm
  Efficacy in %: 95%
[2]; 500 g/ha
  mortality at 500 g/ha: ≥ 80%
[3]
  mortality at 500 g/ha: ≥ 80%
[4]; 500 g/ha
  mortality at 500 g/ha: ≥ 80%
[5]
  mortality at 500 g/ha: ≥ 80%

## CC12CCC(C(=O)C(c3cc(-c4ccc(Cl)cc4)ccc3Cl)=C1O)C2(C)C (stereo not drawn) [T 114]
[1]; 500 ppm
  Efficacy in %: 90%
[4]; 20 g/ha
  mortality at 20 g/ha: ≥ 80%

## Cc1ccc(-c2ccc(Cl)cc2)cc1C1=C(O)C2(C)CCC(C1=O)C2(C)C (stereo not drawn) [T 115]
[1]; 250 ppm
  Efficacy in %: 80%
[2]; 100 g/ha
  mortality at 100 g/ha: ≥ 80%
